Our source for the inhibition values is US8765773B2, “Substituted hydroxamic acids and uses thereof” (Millennium Pharmaceuticals, Inc., priority 2010, dated 2014).

The experiment deals with T1, purified human HDAC6 (Homo sapiens, UniProt Q9UBN7).
T1 construct: purchased BPS Bioscience 5006
T1 sequence (Q9UBN7 1-1215): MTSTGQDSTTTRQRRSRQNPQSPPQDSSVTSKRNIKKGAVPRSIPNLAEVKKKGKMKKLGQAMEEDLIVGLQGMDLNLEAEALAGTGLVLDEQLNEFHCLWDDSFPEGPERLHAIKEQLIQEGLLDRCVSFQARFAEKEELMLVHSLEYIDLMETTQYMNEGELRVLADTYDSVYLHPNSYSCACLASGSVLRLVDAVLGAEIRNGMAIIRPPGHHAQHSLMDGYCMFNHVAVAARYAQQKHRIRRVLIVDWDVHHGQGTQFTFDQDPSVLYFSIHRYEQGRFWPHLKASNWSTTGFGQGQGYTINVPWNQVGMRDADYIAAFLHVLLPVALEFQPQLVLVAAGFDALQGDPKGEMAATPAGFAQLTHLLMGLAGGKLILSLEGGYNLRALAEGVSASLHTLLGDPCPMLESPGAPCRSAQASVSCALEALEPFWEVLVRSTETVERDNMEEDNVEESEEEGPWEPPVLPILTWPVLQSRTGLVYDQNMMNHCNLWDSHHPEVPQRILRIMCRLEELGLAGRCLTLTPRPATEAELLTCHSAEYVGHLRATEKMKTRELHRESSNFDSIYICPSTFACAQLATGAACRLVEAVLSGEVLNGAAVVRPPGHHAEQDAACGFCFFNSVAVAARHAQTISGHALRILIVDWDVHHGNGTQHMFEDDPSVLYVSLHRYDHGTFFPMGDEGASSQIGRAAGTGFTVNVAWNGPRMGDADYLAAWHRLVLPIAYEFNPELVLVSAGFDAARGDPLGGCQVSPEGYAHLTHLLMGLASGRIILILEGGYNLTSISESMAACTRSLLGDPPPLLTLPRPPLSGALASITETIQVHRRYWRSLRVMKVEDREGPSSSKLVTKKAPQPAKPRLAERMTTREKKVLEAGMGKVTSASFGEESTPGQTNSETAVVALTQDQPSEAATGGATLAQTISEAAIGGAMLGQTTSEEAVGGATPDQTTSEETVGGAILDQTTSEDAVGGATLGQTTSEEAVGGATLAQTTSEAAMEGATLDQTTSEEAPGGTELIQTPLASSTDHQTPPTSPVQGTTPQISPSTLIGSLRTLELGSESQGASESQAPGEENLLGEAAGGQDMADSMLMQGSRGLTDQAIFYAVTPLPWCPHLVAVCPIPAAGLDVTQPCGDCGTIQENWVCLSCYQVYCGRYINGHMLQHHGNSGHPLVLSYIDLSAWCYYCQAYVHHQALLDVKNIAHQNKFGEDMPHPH
Description: HDAC6 Enzyme Assay. It is filed as biochemical. The note with it: read-out: Percent Inhibition; for inhibition at 0.412 µM: compound concentration 0.412 μM; for inhibition at 0.37 µM: compound concentration 0.37 μM. In outline: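 Purified human HDAC6 incubated 1 h at 30° C with Ac-Arg-Gly-Lys(Ac)-AMC peptide plus compound or DMSO; stopped with trichostatin A. Deacetylated product trypsin-digested, released AMC read by fluorescence (Ex 340/Em 460 nm). Percent inhibition at one concentration or IC50 from curves relative to DMSO controls.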

Molecules are shown by their SMILES.

In the case of `COc1ccc(CCCn2ccc3ccc(C(=O)NO)cc3c2=O)cc1` [Compound I-140, N-hydroxy-2-[3-(4-methoxyphenyl)propyl]-1-oxo-1,2-dihydroisoquinoline-7-carboxamide], the inhibition (in general, the drop in the measured response relative to a control, in per cent) at 0.412 µM stood at 96.5%.
For `CC(C)C(Cn1ccc2ccc(C(=O)NO)cc2c1=O)c1ccccc1` (stereo not shown) [Compound I-141, N-hydroxy-2-(3-methyl-2-phenylbutyl)-1-oxo-1,2-dihydroisoquinoline-7-carboxamide], the inhibition at 0.412 µM was 90.5%.
As to `O=C(NO)c1ccc2ncn(Cc3cccc(S(=O)(=O)c4ccccc4)c3)c(=O)c2c1` [Compound I-142, N-hydroxy-4-oxo-3-[3-(phenylsulfonyl)benzyl]-3,4-dihydroquinazoline-6-carboxamide], the inhibition at 0.37 µM stood at 97.4%.
In the case of `COc1ccc(-c2cccc(Cn3cnc4ccc(C(=O)NO)cc4c3=O)c2)cn1` [Compound I-143, N-hydroxy-3-[3-(6-methoxypyridin-3-yl)benzyl]-4-oxo-3,4-dihydroquinazoline-6-carboxamide], the inhibition at 0.37 µM came out at 96.6%.
Consider `O=C(NO)c1ccc2c(=O)[nH]c(COc3ccccc3Cl)nc2c1` [Compound I-144, 2-[(2-chlorophenoxy)methyl]-N-hydroxy-4-oxo-3,4-dihydroquinazoline-7-carboxamide], for which the inhibition at 0.412 µM was 81.2%.
The same measure, in the same setting: under `O=C(NO)c1ccc2c(=O)[nH]c(COc3cc(Cl)cc(Cl)c3)nc2c1` [Compound I-145, 2-[(3,5-dichlorophenoxy)methyl]-N-hydroxy-4-oxo-3,4-dihydroquinazoline-7-carboxamide] stands 76.7%; under `O=C(NO)c1ccc2c(=O)[nH]c(CNC3CCNCC3)nc2c1` [Compound I-146, N-hydroxy-4-oxo-2-[(piperidin-4-ylamino)methyl]-3,4-dihydroquinazoline-7-carboxamide], 65.7%; under `O=C(NO)c1ccc2ncn(Cc3ccc(C(F)(F)F)cc3C(F)(F)F)c(=O)c2c1` [Compound I-147, 3-[2,4-bis(trifluoromethyl)benzyl]-N-hydroxy-4-oxo-3,4-dihydroquinazoline-6-carboxamide], 93.2%.
As for `Cc1cc(Cn2ccc3ccc(C(=O)NO)cc3c2=O)no1` [Compound I-148, N-hydroxy-2-[(5-methylisoxazol-3-yl)methyl]-1-oxo-1,2-dihydroisoquinoline-7-carboxamide], the inhibition at 0.412 µM is 91.2%.
On the same count and under the same terms, the value for `Cc1ccccc1OCCn1ccc2ccc(C(=O)NO)cc2c1=O` [Compound I-149, N-hydroxy-2-[2-(2-methylphenoxy)ethyl]-1-oxo-1,2-dihydroisoquinoline-7-carboxamide] was 97.3%.
Same read-out and setting: under `O=C(NO)c1ccc2c(=O)n(Cc3ccc(C(F)(F)F)cc3)c(C3CCCCC3)nc2c1` [Compound I-150, 2-cyclohexyl-N-hydroxy-4-oxo-3-[4-(trifluoromethyl)benzyl]-3,4-dihydroquinazoline-7-carboxamide] stands 30.1%; under `COc1ccc2cc(OCCCn3ccc4ccc(C(=O)NO)cc4c3=O)ccc2c1` [Compound I-151, N-hydroxy-2-{3-[(6-methoxy-2-naphthyl)oxy]propyl}-1-oxo-1,2-dihydroisoquinoline-7-carboxamide], 96.2%; under `O=C(NO)c1ccc2ccn(CCc3c[nH]c4ccccc34)c(=O)c2c1` [Compound I-152, N-hydroxy-2-[2-(1H-indol-3-yl)ethyl]-1-oxo-1,2-dihydroisoquinoline-7-carboxamide], 96%.
On the same count and under the same terms, under `O=C(NO)c1ccc2ccn(CCCC3CCCCC3)c(=O)c2c1` [Compound I-153, 2-(3-cyclohexylpropyl)-N-hydroxy-1-oxo-1,2-dihydroisoquinoline-7-carboxamide] stands 89.9%.
With `O=C(NO)c1ccc2ccn(-c3ccccc3)c(=O)c2c1` [Compound I-154, N-hydroxy-1-oxo-2-phenyl-1,2-dihydroisoquinoline-7-carboxamide], the inhibition at 0.37 µM amounted to 93.9%.
Turning to `O=C(NO)c1ccc2c(=O)[nH]c(=O)[nH]c2c1` [Compound I-155, N-hydroxy-2,4-dioxo-1,2,3,4-tetrahydroquinazoline-7-carboxamide], the inhibition at 0.412 µM was determined as 19.6%.
Still for that read-out and setting: under `Cn1cnc2ccc(C(=O)NO)cc2c1=O` [Compound I-156, N-hydroxy-3-methyl-4-oxo-3,4-dihydroquinazoline-6-carboxamide] stands 55.7%; under `Cc1ccccc1Cn1ccc2ccc(C(=O)NO)cc2c1=O` [Compound I-157, N-hydroxy-2-(2-methylbenzyl)-1-oxo-1,2-dihydroisoquinoline-7-carboxamide], 94.8%.
On the same count and under the same terms, under `O=C(NO)c1ccc2ccn(CCO)c(=O)c2c1` [Compound I-158, N-hydroxy-2-(2-hydroxyethyl)-1-oxo-1,2-dihydroisoquinoline-7-carboxamide] stands 72.5%; under `CCN(CC)c1cccc(OCCn2ccc3ccc(C(=O)NO)cc3c2=O)c1` [Compound I-159, 2-{2-[3-(diethylamino)phenoxy]ethyl}-N-hydroxy-1-oxo-1,2-dihydroisoquinoline-7-carboxamide], 91.3%.
The same measure, in the same setting: under `O=C(NO)c1ccc2ccn(CCCOc3ccccc3-c3csnn3)c(=O)c2c1` [Compound I-160, N-hydroxy-1-oxo-2-{3-[2-(1,2,3-thiadiazol-4-yl)phenoxy]propyl}-1,2-dihydroisoquinoline-7-carboxamide] stands 87.4%; under `O=C(NO)c1ccc2ccn(CCOc3ccc(C45CC6CC(CC(C6)C4)C5)cc3)c(=O)c2c1` [Compound I-161, 2-(2-{4-[1-adamantyl]phenoxy}ethyl)-N-hydroxy-1-oxo-1,2-dihydroisoquinoline-7-carboxamide], 67%; under `O=C(NO)c1ccc2ccn(Cc3ccccc3Cl)c(=O)c2c1` [Compound I-162, 2-(2-chlorobenzyl)-N-hydroxy-1-oxo-1,2-dihydroisoquinoline-7-carboxamide], 94.2%.
As to `O=C(NO)c1ccc2ccn(CCCOCc3ccccc3)c(=O)c2c1` [Compound I-163, 2-[3-(benzyloxy)propyl]-N-hydroxy-1-oxo-1,2-dihydroisoquinoline-7-carboxamide], the inhibition at 0.412 µM stood at 92.5%.
Regarding `O=C(NO)c1ccc2ncn(Cc3csc4ccc(Cl)cc34)c(=O)c2c1` [Compound I-164, 3-[(5-chloro-1-benzothien-3-yl)methyl]-N-hydroxy-4-oxo-3,4-dihydroquinazoline-6-carboxamide], the inhibition at 0.412 µM was found to be 94.1%.
Still for that read-out and setting: under `Cn1c(NCc2ccc(Cl)cc2)nc2ccc(C(=O)NO)cc2c1=O` [Compound I-165, 2-[(4-chlorobenzyl)amino]-N-hydroxy-3-methyl-4-oxo-3,4-dihydroquinazoline-6-carboxamide] stands 59.5%.
Consider `Cn1c(-c2nc3cc(C(=O)NO)ccc3c(=O)n2Cc2ccc(C(F)(F)F)cc2)cc2ccccc21` [Compound I-166, N-hydroxy-2-(1-methyl-1H-indol-2-yl)-4-oxo-3-[4-(trifluoromethyl)benzyl]-3,4-dihydroquinazoline-7-carboxamide], for which the inhibition at 0.37 µM was determined as 78.8%.
Consider `CS(=O)(=O)c1ccccc1OCCn1ccc2ccc(C(=O)NO)cc2c1=O` [Compound I-167, N-hydroxy-2-{2-[2-(methylsulfonyl)phenoxy]ethyl}-1-oxo-1,2-dihydroisoquinoline-7-carboxamide], for which the inhibition at 0.412 µM turned out to be 96.1%.
Still for that read-out and setting: under `O=C(NO)c1ccc2c(=O)[nH]c(COc3ccccc3C(F)(F)F)nc2c1` [Compound I-168, N-hydroxy-4-oxo-2-{[2-(trifluoromethyl)phenoxy]methyl}-3,4-dihydroquinazoline-7-carboxamide] stands 72.8%.
Consider `Cn1c(=O)[nH]c2ccc(C(=O)NO)cc2c1=O` [Compound I-169, N-hydroxy-3-methyl-2,4-dioxo-1,2,3,4-tetrahydroquinazoline-6-carboxamide], for which the inhibition at 0.412 µM came to 62.8%.
For the molecule `O=C(NO)c1ccc2ccn(CCCN3CCCCC3)c(=O)c2c1` [Compound I-170, N-hydroxy-1-oxo-2-(3-piperidin-1-ylpropyl)-1,2-dihydroisoquinoline-7-carboxamide], the inhibition at 0.412 µM was 67.1%.
